Measurements reported in patent US7553929B2, “Cell permeable peptides for inhibition of inflammatory reactions and methods of use” (Vanderbilt University, priority 1994, dated 2009).
Where two headings read alike, the source gives them in different places. Bridges are numbered along the chain shown (N, C = ends). Where no end group is shown, it is not given here.

Experiments:
[1] = tested on: NIH 3T3 cells; assay: [3H]thymidine incorporation (mitogenic response) of NIH 3T3 cells; assay type: cell-based; conditions: comparable concentration ranges
Protocol: A 26-residue hybrid peptide (referred to as SA, listed herein as SEQ ID NO:3) was designed and synthesized. […] Thus, the SA peptide differs from the SM peptide only in its 7-residue carboxyl terminal “cargo” region. A functional assay was performed in which SA peptide was able to induce a mitogenic response of NIH 3T3 cells measured by [^3H]thymidine incorporation in a manner similar to aFGF bearing, the same NLS. ^18
In this functional assay, confluent 3T3 cells grown initially in DMEM containing 10% FBS were transferred to a low serum medium (DMEM containing 0.5% FBS) for 2 days. The test peptides, either SA peptide, SAα pep-tide, ANL peptide, or SM peptide, or aFGF, were added to a fresh low serum medium at the indicated concentrations at 37° C. After 16 hours, [^3H]thymidine was added and 4 hours later, the cells were washed with PBS, treated with trichloroacetic acid, solubilized with 0.15 M NaOH, and the radioactivity was determined in a liquid scintillation counter.
(§1) Bars represent the mean±S.E.M. of at least three independent experiments done in triplicate and calculated as multiplicity of counts in the tested sample over the control sample. SA peptide within the concentration range used (0 to 46 μM) was not cytotoxic as determined by staining with fluorescein diacetate/ethidium bromide. ^20

[2] = tested on: human umbilical vein endothelial cells; assay: Indirect immunofluorescence assay of SM peptide import, HUVEC; assay type: cell-based
[3] = tested on: rodent endothelial cell line (LE-II); assay: Indirect immunofluorescence assay of peptide import, LE-II cells; assay type: cell-based
[4] = tested on: baby hamster kidney-21 cells; assay: Indirect immunofluorescence assay of SM peptide import, baby hamster kidney-21 cells; assay type: cell-based
[5] = tested on: NIH 3T3 cells; assay: Indirect immunofluorescence assay of peptide import into NIH 3T3 cells; assay type: cell-based
Source text: A 26-residue peptide (referred to as SM, listed herein as SEQ ID NO:1) that contained the predicted signal sequence of Kaposi fibroblast growth factor ^16-17 (K-FGF) was chemically synthesized. An indirect immunofluorescence assay using antibody against epitope tag-containing SM peptide was employed to follow translocation of the SM peptide to the intracellular compartments of NIH 3T3 cells. A polyclonal anti-SM peptide antibody against the SM peptide-keyhole limpet haemocyanin conjugate (Pierce) was raised in rabbits and reacted with SM peptide in ELISA (titer>1:30,000). The intracellular SM peptide was detected by an indirect imrnmunofluorescence assay using affinity-purified anti-SM peptide IgG and rhodamine-labeled anti-rabbit antibody (Kirkegaard & Perry). Briefly, confluent NIH 373 cells on the chamber slides (Nunc) were treated with either 0.5 ml SM peptide solution (100 μg ml^−1) in DMEM containing 10% FBS or with 0.5 ml DMEM containing 10% FBS only for 30 minutes at 37° C. The cells were fixed with 3.5% paraformaldehyde solution in PBS followed by 0.25% Triton X-100 in PBS and then treated with 1:20 anti-SM peptide IgG in PBS containing 0.5% bovine serum albumin (BSA) for 1.5 h. The intracellular SM peptide-antibody complexes were visualized by subsequent incubation with a rhodamine-labeled anti-rabbit polyclonal antibody for 1 h. In control systems, anti-SM peptide antibody was preabsorbed with the SM peptide. Intracellular localization of the SAα peptide was detected by immunofluorescence assay using affinity-purified anti-SM peptide IgG as described above for SM peptide. […] A ten-step z-position sectional scanning of the SM peptide-treated cells by the confocal laser scanning microscopy (CLSM) affirmed that these deposits were intracellular. […] Likewise, cells not exposed to SM peptide or cells exposed to SM peptide followed by the secondary antibody alone were negative. If cells were fixed with paraformaldehyde before peptide treatment, the cellular import of SM peptide was prevented.
To determine the rate of SM peptide import across cell membranes, a kinetic experiment was carried out with the SM peptide-treated NIH 3T3 cells. NIH 3T3 cells were treated at 37° C. with 0.5 ml SM peptide at 100 μg mL^−1 in DMEM containing 10% FBS for 1, 5, 15, 30, 60 and 120 minutes. Intracellular SM peptide deposits were detected by indirect immunofluorescence assay as described above. […] The 30-minute time point was therefore selected to determine the optimal peptide concentrations for detectable import.
To determine the optimal peptide concentration, NIH 3T3 cells were treated for 30 minutes at 37° C. with 0.5 ml SM peptide solution in DMEM containing 10% FBS at the following concentrations: 0, 2, 10, 50, 100, and 150 μg ml^−1. Intracellular localization of the SM peptide was detected by indirect immunofluorescence assay as described above. […] The cellular import was concentration-dependent and reached a plateau between 50 μg/ml and 100 μg/ml.
Transport of the SM peptide across the cell membrane was temperature-dependent. […] Accordingly, cellular import of the SM peptide resumed when the incubation temperature shifted from 4° C. to 37° C.
The intracellular SA peptide could not be tracked by an immunofluorescence assay because it was not recognized by the available anti-SM peptide antibody. However, attaching two extra amino acid residues (Met-Pro) to the carboxyl terminus of the SA peptide produced a modified SA peptide (referred to as SAα, listed herein as SEQ ID NO:4) that contained a 3-amino acid epitope tag, Leu-Met-Pro, recognized by anti-SM peptide antibody in ELISA. […] Like SA peptide, SAα peptide was mitogenic in the thymidine incorporation assay.

[6] = tested on: NF-κB complex; conditions: for Inducible nuclear import of NF-κB, LPS / Inducible nuclear import of NF-κB, TNFα: LEII
[7] = tested on: NF-κB; assay type: cell-based, murine; conditions: J774, LPS 10 ng/ml, peptide 31 μM (Example II)
[8] = tested on: rabbits; assay: Localized Shwartzman reaction (LPS-induced skin inflammatory reaction) in rabbits; assay type: in vivo, rabbit; conditions: intradermal application prior to the second LPS injection
[9] = tested on: NIH 3T3 cells; assay: Import of 125I-labeled peptide into NIH 3T3 cells (cell-associated radioactivity; ATP depletion, protease treatment); assay type: cell-based; conditions: for Counts in cells: 15 ng, 30 min; for Counts in cell lysates / Counts in supernatants: 5 min
Source text: Intracellular localization of the membrane-permeable peptide was also shown by treatment of cells with proteases following peptide import. For this experiment, 41-residue peptide (referred to as SEP and listed herein as SEQ ID NO:6) that contained the same hydrophobic sequence as SM peptide followed by the sequence of K-FGF(129-153) was designed and synthesized. The latter was present in KP peptide not containing hydrophobic sequence that served as the control for the membrane-permeable SKP peptide. […] The intracellular ^125I-SKP peptide was resistant to the action of proteases.
Both SKP and KP peptides were radiolabeled with ^125I by the lodogen method (Pierce). The specific activities of both peptides were similar (2.5×10^4 cpm/ng). NIH 3T3 cells were subcultured on a 60-mm dish and incubated at 37° C. for 3 days. The confluent monolayers (1.6×10^6 cells) on each dish were then washed twice with PBS and treated with 15 ng of ^125I-SKP or ^125I-KP peptide at 37° C., for the indicated time. The cells were washed eight times with PBS and twice with 2 M NaCl buffer (pH 7.5) until no radioactivity could be detected in the washings. The washed cells were lysed in lysis buffer (10 mM Tris-HCl, pH 7.0, 0.1 mM EDTA, 1 mM phenylmethylsulphony fluoride, 1 mM dithiothreitol, and 1% Triton X-100) and the radioactivity in the cell lysates was counted in a Packard auto-gamma counter. In some experiments, the washed cells were further treated with pronase (1 mg/ml) or trypsin (0.05%) solution in DMEM for 5 min at 37° C. The supernatants and cells were separated and their radioactivities were counted separately. For ATP depletion assay, cells were incubated with 5 μglml antimycin, 6.5 mM 2-deoxyglucose, and 10 mM glucono-δ-lactone in DMEM for 2 h at 37° C. before addition of ^125I-SKP peptide. The levels of ATP in ATP-depleted cells and normal cells were determined by ATP bioluminescent assay kit (Sigma).
For ATP depletion assay, confluent NIH 3T3 cells (1.6×10^6 cells) in each dish were treated with or without ATP depleting reagents (antimycin, 2deoxyglucose, and glucono-δ-lactone) for 2 h at 37° C. Cells were then treated with 15 ng of ^125I-SKP peptide for 30 min at 37° C. After complete removal of extracellular^125I-labeled peptides, the radioactivity in the cell lysates was counted. For the assay using proteases, cells were treated with ^125 I-SKP peptide and washed as described above. The ^125I-SKF peptide-associated cells were then treated with pronase (1 mg/ml), trypsin (0.05%), or diluent for 5 min at 37° C. The radio-activities in the cell lysates and supernatants were counted separately. Data in Table 1 represent the mean the mean ±SEM of triplicate determinations of a single experiment. The experiment was repeated three times with similar results.

[10] = tested on: NIH 3T3 cells; assay: Cytotoxicity by staining with fluorescein diacetate/ethidium bromide; assay type: cell-based; conditions: 0 to 46 μM
Protocol: as §1

[11] = tested on: NF-κB; assay type: cell-based

## SM peptide: 26-residue peptide: K-FGF signal sequence, spacer, epitope tag; mutated, loss-of-function NLS; cell-permeable control (AAVALLPAVLLALLAPAAADQNQLMP; 1..16 Note/label = a (“Signal peptide amino acid sequence of K-FGF”))
[1]
  Mitogenic activity in thymidine incorporation assay: Neither control peptide showed any significant mitogenic activity
[2]
  Intracellular localization by indirect immunofluorescence: the same results as with NIH 3T3 cells
[3]
  Intracellular localization by indirect immunofluorescence: the same results as with NIH 3T3 cells
[4]
  Intracellular localization by indirect immunofluorescence: the same results as with NIH 3T3 cells
[5]; 100 μg/mL, 37° C.
  Time at which intracellular staining plateaued: about 30 minutes
  Time at which intracellular staining was first observed: ≤ 5 min
[5]; 100 μg/ml, 30 minutes, 4° C.
  Immunofluorescence staining at 4° C.: No immunofluorescence staining was observed
[5]; 100 μg/ml, 30 minutes, 22° C. or 37° C.
  Immunofluorescence staining at 22° C. or 37° C.: numerous punctate deposits
[5]; 100 μg/ml, 30 minutes, 37° C.
  Intracellular peptide deposits by indirect immunofluorescence: intracellular deposits were observed in almost all cells
[5]; 30 minutes, 37° C.
  Concentration giving detectable intracellular peptide: 2 µg/mL
  Concentration giving detectable intracellular peptide (molar): about 800 nM
[5]; cells fixed before treatment
  Cellular import in cells fixed with paraformaldehyde before peptide treatment: prevented

## Asn-Tyr-Lys-Lys-Pro-Lys-Leu (NYKKPKL) (1..7 Note/label = a (“Nuclear localization sequence of aFGF”)) [ANL peptide, 7-residue peptide representing the NLS of aFGF, reference compound]
[1]
  Mitogenic activity in thymidine incorporation assay: Neither control peptide showed any significant mitogenic activity

## SN50 peptide: 26-residue peptide: K-FGF signal sequence (residues 1-16) and NLS of NF-kB p50 subunit (residues 17-26) (AAVALLPAVLLALLAPVNRKRNKLMP)
[6]; LPS 10 ng/ml (Example II)
  Inducible nuclear import of NF-κB, LPS: inhibited
[6]; LPS 10 ng/ml (Example III)
  Inducible nuclear import of NF-κB, LPS: inhibited
[6]; TNFα 20 U/ml (Example III)
  Inducible nuclear import of NF-κB, TNFα: inhibited
[6]; TNFα 100 U/ml (Example II)
  Inducible nuclear import of NF-κB, TNFα: inhibited
[7]
  Nuclear import of NF-κB induced by LPS: blocked
[3]
  Intracellular distribution compared to intracellular SM peptide: more nuclear staining pattern
[8]
  Localized skin inflammatory reaction (Evans' Blue area): greatly diminished area of blue discoloration

## SKP peptide: 41-residue peptide: same hydrophobic sequence as SM peptide followed by K-FGF(129-153); tested 125I-radiolabeled (AAVALLPAVLLALLAPEILLPNNYNAYESYKYPGMFIALSK; also: 125I radiolabel, site not given here)
[9]; 15 ng 125I-peptide, 37° C.
  Radioactivity detected in peptide-treated cells: Substantial radioactivity was detected
[9]; ATP-depleted cells, 37° C.
  Counts in cells: 22,266 ± 3,602 cpm/1.6 × −10′ cells
[9]; no protease (diluent), 37° C.
  Counts in cell lysates: 21,323 ± 853
  Counts in supernatants: 2,966 ± 838
[9]; pronase 1 mg/ml, 37° C.
  Counts in cell lysates: 21,791 ± 1,953
  Counts in supernatants: 1,979 ± 75
[9]; pronase or trypsin
  Loss of cell-associated radioactivity after protease treatment: no significant loss of cell-associated radioactivity was observed
[9]; trypsin 0.05%, 37° C.
  Counts in supernatants: 655 ± 70
[9]; untreated (ATP-positive) cells, 37° C.
  Counts in cells: 20,189 ± 2,109 cpm/1.6 × −10′ cells

## AAVALLPAVLLALLAPAAANYKKPKL [SA peptide]
[10]
  Cytotoxicity: not cytotoxic

## cSN50 peptide: cyclic peptide designed by inserting two cysteines flanking the NLS motif of SN50 (AAVALALLPAVLLALLAPCYVQRKRQKLMPC; disulfide 19-31 (inferred))
[6]; cSN50 versus SN50
  Potency relative to the prototypical SN50 peptide (phosphoimager analysis): 3-10 times
[11]
  SEB-induced NF-κB nuclear import: increasing inhibition of SEB-induced NF-κB nuclear import

## SAα peptide: SA peptide with two extra residues (Met-Pro) at the carboxyl terminus (AAVALLPAVLLALLAPAAANYKKPKLMP; 1..16 Note/label = a (“Signal peptide amino acid sequence of K-FGF”))
[1]
  Mitogenic activity in thymidine incorporation assay: mitogenic
[5]; SAα-treated NIH 3T3 cells
  Intracellular peptide staining with anti-SM peptide antibody: punctate staining pattern
